Paper PMC10447463, “Data-mining unveils structure–property–activity correlation of viral infectivity enhancing self-assembling peptides” (Nature Communications, 2023)
“And” between values parts separate entries of the source, which are not always exact repeats. Equal values may be shown once.

Columns and labels:
[1] = Turbidity, derived count rate of scattered light; format: physicochemical; conditions: for Count Rate: derived count rate of scattered light (turbidity); for Log10 Count Rate: turbidity, derived count rate of scattered light, data of Figure 2D
[2] = Aggregate analysis by widefield fluorescence microscopy; format: physicochemical; conditions: ThT-stained aggregates > 10 µm2 in 1330 µm × 1330 µm; 1 mg/mL 1 d, diluted to 0.1 mg/mL with 50 µM ThT; 3D object counter ImageJ, triplicate
Description: 4 µL of 1 mg/mL peptide fibrils solution is added to a 20 µL, 50 µM ThT–solution in PBS. The mixture is incubated for 15 min at RT to allow binding of ThT dye with β–sheet rich structures. For reference PBS (4 µL) was added instead of peptide fibril solution. The samples were placed in black UV Star® 384 microliter well–plates (Greiner bio–one). Fluorescence spectra were recorded on an Infinite® M1000 PRO microplate reader (Tecan) at λem = 488 nm upon excitation at λex = 440 nm with 10 nm bandwidths and multiple reads per well (3×3). Measurements were repeated in triplicates and averaged with standard deviation. A peptide fibril was considered as ThT-active if the fluorescence intensity was at least twice as strong compared to the control (PBS containing 10% DMSO). Zeta-Potential. For the determination of the surface charge of aggregated peptides zeta-potential measurements were conducted with a Zetasizer Nano ZS, Malvern Instruments. Unless stated otherwise the peptides were dissolved from DMSO (10 mg/mL) in PBS (pH 7.4) to concentration of 1 mg/mL and incubated for 1d at RT. Just before the measurement the 60 µL of the peptides were further diluted in 600 µL KCl (aq, 1 mM) in a 1 mL disposable folded capillary cells (DTS–1060, Zetasizer Nano series, Malvern). The zeta potential of the peptides was derived from the electrophoretic mobility based on the Smoluchowski formula. All measurements were averaged over two individually performed experiments and conducted in triplicates for each sample. Aggregate analysis. […] Furthermore, fluorescence microscopy was conducted by staining 1 µL preformed fibrils (1 mg/mL) with 9 µL ThT (50 µM). Brightfield microscopy was performed simultaneously to evaluate aggregation also for non ThT-active fibrils. The measurements were performed on a Leica DMi8 microscope with 10x air objective and equipped with a Leica MC170 HD camera with a filter setting λem = 527/30 nm upon excitation at λex = 480/40 nm) and processed with the Leica LASX software. To quantify size and number of microscopic aggregation of particles > 10 µm^2 at least 3 independently measured images were analyzed via the 3D object counter analysis tool of ImageJ, v 1.53f51. Sum–frequency generation. The SFG experiments were carried out with a femtosecond Ti: Sapphire amplified laser system (Spitfire Ace, Spectra–Physics, 800 nm, 40 fs, 1 kHz) with 5 W output power. We used 2 W to pump an optical parametric amplifier (TOPAS, light conversion) with a non–collinear difference frequency generation stage to generate broadband IR pulses. Another 1 W of the laser output passed through an etalon to generate narrowband visible pulses (10 cm^-1). The incident angles of the visible and IR beams were 36° and 41° with respect to the surface normal, respectively. The visible (13 µJ) and IR (5 µJ) pulses were overlapped spatially and temporally at the sample position. Subsequently, the generated SFG pulse was guided into a spectrograph (Acton SP 300i, Princeton Instruments), and detected with an EMCCD (Newton, Andor Technology). To avoid IR absorption of water vapor, we purged N2 for the measurement. All spectra were collected in the ssp (denoting s-, s- and p-polarized SFG, visible and IR, respectively) polarization combination. The spectra were normalized to the non–resonant signal taken from z–cut quartz after subtracting a background spectrum.
Table S8 Summary of aggregate analysis from widefield microscopy measurements (Figure S32). The Number of aggregated peptides, the median size area, average size area
and the cumulative total size area of all particles (> 10 µm2) in an area of 1330 µm × 1330 µm was determined via automated 3D object counting (ImageJ) in triplicate
measurements (Std. Dev.).
Aggregate Std. Dev. Std. Dev. Std. Dev. Std. Dev.
Sequence Abs. Inf. / Std. Dev. / Count Rate / Std. Dev. Number Aggregate Median Area Median Area Average Area Average Area Total Area/ Total Area/ […]

[3] = system: HIV-1 infection of TZM-bl cells; test: HIV-1 infectivity enhancement assay, β-galactosidase luminescence; format: cell-based; conditions: for Rel-EFC: infection relative to EF-C (QCKIKQIINMWQ = 1); for Log10 Infection Rel EFC: log10 of infection relative to EF-C; for Log Infectivity: Fig. S7 panel A (plotted against β-sheet content), Log10 infection relative to EF-C, asymmetric std dev errors; for Log10 Infection Rel EF-C: HIV-1 infection of TZM-bl cells; for Log10 of Rel to EFC (Feb2021): Log10 of infection relative to EF-C; for Abs. Inf.: β-galactosidase luminescence; for Abs. Infection at 0.26 µM / Infect 1 0.26 µM / Infect 2 0.26 µM / Infect 3 0.26 µM: peptide 0.26 µM; for Abs. Infection at 0.26 µM / Abs. Infection at 1.3 µM: mean of n = 3, Figure 4A; for Infect 1 0.26 µM / Infect 1 .3 µM: replicate 1, absolute infection signal; for Infect 1 0.26 µM / Infect 2 0.26 µM / Infect 3 0.26 µM / Infect 1 .3 µM / Infect 2 1.3µM / Infect 3 1.3 µM: Figure 4A; for Infect 2 0.26 µM / Infect 2 1.3µM: replicate 2, absolute infection signal; for Infect 3 0.26 µM / Infect 3 1.3 µM: replicate 3, absolute infection signal; for Abs. Infection at 1.3 µM / Infect 1 .3 µM / Infect 2 1.3µM / Infect 3 1.3 µM: peptide 1.3 µM
[4] = Log10 of infection rate relative to EF-C, Figure 3A source data
[5] = infection rate relative to EF-C, log10, data of Figure 2D
[6] = infection rate relative to EF-C, log10, source data of Figure 2C

## CKFKQFFNM
[1]
  Count Rate: 27264.3
  Log10 Count Rate: 4.436
[2]
  Number of Aggregates / Aggregate Number: 704 ± 90 and 704
[3]; 1.3 µM peptide
  Rel-EFC: 0,41
  Log10 Infection Rel EFC: -0,39
[3]; TZM-bl cells
  Log Infectivity: -0.3892
[3]; [4]
  Log10 Infection Rel EF-C: -0.39
[3]; [5]
  Log10 Infection Rel EF-C: -0.3892
[3]; [6]
  Log10 Infection Rel EF-C: -0.3892
[3]; all peptides of FigS16
  Log10 of Rel to EFC (Feb2021): -0.39
[3]; absolute infection signal, HIV-1 on TZM-bl cells
  Abs. Inf.: 15720
[3]; log10 of HIV-1 infection of TZM-bl cells relative to EF-C (EF-C = 0)
  Log10 Inf. rel. to EF-C: -0.3892

## CQFQFQF
[1]
  Count Rate: 7929
  Log10 Count Rate: 3.899
[2]
  Number of Aggregates / Aggregate Number: 46
[3]; 1.3 µM peptide
  Rel-EFC: 0,35
  Log10 Infection Rel EFC: -0,45
[3]; TZM-bl cells
  Log Infectivity: -0.4519
[3]; [4]
  Log10 Infection Rel EF-C: -0.45
[3]; [5]
  Log10 Infection Rel EF-C: -0.4519
[3]; [6]
  Log10 Infection Rel EF-C: -0.4519
[3]; all peptides of FigS16
  Log10 of Rel to EFC (Feb2021): -0.45

## HHHHKIKIKIKIYYYY
[1]
  Count Rate: 12792.53333
  Log10 Count Rate: 4.107
[2]
  Number of Aggregates / Aggregate Number: 147
[3]; 1.3 µM peptide
  Rel-EFC: 0,68
  Log10 Infection Rel EFC: -0,17
[3]; TZM-bl cells
  Log Infectivity: -0.1685
[3]; [4]
  Log10 Infection Rel EF-C: -0.17
[3]; [5]
  Log10 Infection Rel EF-C: -0.1685
[3]; [6]
  Log10 Infection Rel EF-C: -0.1685
[3]; all peptides of FigS16
  Log10 of Rel to EFC (Feb2021): -0.17
[3]; second listing, peptides with TEM 2cat 0
  Log10 of Rel to EFC (Feb2021): -0.17
[3]
  Abs. Infection at 0.26 µM: 8963
  Infect 1 0.26 µM: 7733.33
  Infect 2 0.26 µM: 6433.33
  Infect 3 0.26 µM: 12723.33
  Abs. Infection at 1.3 µM: 20713.33333
  Infect 1 .3 µM: 24723.33
  Infect 2 1.3µM: 15203.33
  Infect 3 1.3 µM: 22213.33

## KFKFQFF
[1]
  Count Rate: 37.77
  Log10 Count Rate: 1.577
[3]; 1.3 µM peptide
  Rel-EFC: 0,12
  Log10 Infection Rel EFC: -0,91
[3]; TZM-bl cells
  Log Infectivity: -0.9142
[3]; [4]
  Log10 Infection Rel EF-C: -0.91
[3]; [5]
  Log10 Infection Rel EF-C: -0.9142
[3]; [6]
  Log10 Infection Rel EF-C: -0.9142
[3]; all peptides of FigS16
  Log10 of Rel to EFC (Feb2021): -0.91
[3]
  Abs. Infection at 0.26 µM: 476.7
  Infect 1 0.26 µM: 343.33
  Infect 2 0.26 µM: 603.33
  Infect 3 0.26 µM: 483.33
  Abs. Infection at 1.3 µM: 2850
  Infect 1 .3 µM: 3623.33
  Infect 2 1.3µM: 2253.33
  Infect 3 1.3 µM: 2673.33

## KAKAQANM
[1]
  Count Rate: 42.5
  Log10 Count Rate: 1.628
[3]; 1.3 µM peptide
  Rel-EFC: 0,01
  Log10 Infection Rel EFC: -2,05
[3]; TZM-bl cells
  Log Infectivity: -2.046
[3]; [4]
  Log10 Infection Rel EF-C: -2.05
[3]; [5]
  Log10 Infection Rel EF-C: -2.046
[3]; [6]
  Log10 Infection Rel EF-C: -2.046
[3]; HIV-1 infection relative to EF-C, Fig 23 plot, panels A and B, mean of 3 values
  Inf. rel. EF-C: 0.02204
[3]; HIV-1 infection relative to EF-C, Fig 23 plot, single data point, replicate 1
  Inf. rel. EF-C: 0.03965
[3]; HIV-1 infection relative to EF-C, Fig 23 plot, single data point, replicate 2
  Inf. rel. EF-C: 0.008224
[3]; HIV-1 infection relative to EF-C, Fig 23 plot, single data point, replicate 3
  Inf. rel. EF-C: 0.01824
[3]; absolute infection rate, peptide 1.3 µM on cells, virus preincubated 10 min with fibrils, read 3 days post infection, mean of triplicate
  Abs. Inf. / RLU s-1: 497 RLU s-1
[3]; n-fold infection vs virus only, relative to that of EF-C, 1.3 µM peptide
  Inf. rel. EF-C: 0.01

## IKVAVKIKIQINM
[1]
  Count Rate: 4848
  Log10 Count Rate: 3.686
[3]; 1.3 µM peptide
  Rel-EFC: 0,5
  Log10 Infection Rel EFC: -0,3
[3]; TZM-bl cells
  Log Infectivity: -0.3046
[3]; [4]
  Log10 Infection Rel EF-C: -0.3
[3]; [5]
  Log10 Infection Rel EF-C: -0.3046
[3]; [6]
  Log10 Infection Rel EF-C: -0.3046
[3]; all peptides of FigS16
  Log10 of Rel to EFC (Feb2021): -0.3
[3]; absolute HIV-1 infection signal, TZM-bl cells
  Abs. Inf.: 17920
